Experimental data reported in patent publication US8946426B2, “Substituted bicyclic heterocyclic compounds as gamma secretase modulators” (Janssen Pharmaceuticals, Inc., priority 2009, dated 2015).

Tests used:
Aβ42 = experiment: Method 1: Aβ42 sandwich ELISA in supernatant of SKNBE2 cells carrying APP 695-wild type (Tables 7a, 7b); format: cell-based; settings: Table 7b, averaged IC50, non-linear regression of percentage of control vs log concentration, 4-parameter equation
Method: (§1) Screening was carried out using SKNBE2 cells carrying the APP 695-wild type, grown in Dulbecco's Modified Eagle's Medium/Nutrient mixture F-12 (DMEM/NUT-mix F-12) (HAM) provided by Gibco (cat no. 31330-38) containing 5% Serum/Fe supplemented with 1% non-essential amino acids. Cells were grown to near confluency.
(§2) The screening was performed using the assay as described in Citron et al (1997) Nature Medicine 3: 67. Briefly, cells were plated in a 96-well plate at about 10^5 cells/ml one day prior to addition of compounds. Compounds were added to the cells in Ultraculture (Lonza, BE12-725F) supplemented with 1% glutamine (Invitrogen, 25030-024) for 18 Hours. The media were assayed by two sandwich ELISAs, for Aβ42 and Aβtotal. Toxicity of the compounds was assayed by WST-1 cell proliferation reagent (Roche, 1 644 807) according to the manufacturer's protocol.
To quantify the amount of Aβ42 in the cell supernatant, commercially available Enzyme-Linked-Immunosorbent-Assay (ELISA) kits were used (Innotest® β-Amyloid(1-42), Innogenetics N.V., Ghent, Belgium). The Aβ42 ELISA was performed essentially according to the manufacturer's protocol. Briefly, the standards (dilutions of synthetic Aβ1-42) were prepared in polypropylene Eppendorf with final concentrations of 8000 down to 3.9 pg/ml (½ dilution step). Samples, standards and blanks (100 μl) were added to the anti-Aβ42-coated plate supplied with the kit (the capture antibody selectively recognizes the C-terminal end of the antigen). The plate was allowed to incubate 3 H at 25° C. in order to allow formation of the antibody-amyloid complex. Following this incubation and subsequent wash steps a selective anti-Aβ-antibody conjugate (biotinylated 3D6) was added and incubated for a minimum of 1 Hour in order to allow formation of the antibody-Amyloid-antibody-complex. After incubation and appropriate wash steps, a Streptavidine-Peroxidase-Conjugate was added, followed 30 minutes later by an addition of 3,3′,5,5′-tetramethylbenzidine (TMB)/peroxide mixture, resulting in the conversion of the substrate into a coloured product. This reaction was stopped by the addition of sulfuric acid (0.9 N) and the colour intensity was measured by means of photometry with an ELISA-reader with a 450 nm filter.
(§3) To obtain the values reported in Table 7a, the sigmoidal dose response curves were analysed by computerised curve-fitting, with percent of inhibition plotted against compound concentration. A 4-parameter equation (model 205) in XLfit was used to determine the IC50. The top and the bottom of the curve were fixed to 100 and 0, respectively, and the hill slope was fixed to 1. The IC50 represents the concentration of a compound that is required for inhibiting a biological effect by 50% (Here, it is the concentration where Aβ peptide level is reduced by 50%).
(§4) To obtain the values reported in Table 7b, the data were calculated as percentage of the maximum amount of amyloid Beta 42 measured in the absence of the test compound. The sigmoidal dose response curves were analyzed using non-linear regression analysis with percentage of the control plotted against the log concentration of the compound. A 4-parameter equation was used to determine the IC50. The values reported in Table 7b are averaged IC50 values.

Aβtotal = experiment: Method 1: Aβtotal sandwich ELISA in supernatant of SKNBE2 cells carrying APP 695-wild type (Tables 7a, 7b); format: cell-based; settings: Table 7b, averaged IC50, non-linear regression of percentage of control vs log concentration, 4-parameter equation
Method: as §1, §2
To quantify the amount of Aβtotal in the cell supernatant, samples and standards were added to a 6E10-coated plate. The plate was allowed to incubate overnight at 4° C. in order to allow formation of the antibody-amyloid complex. Following this incubation and subsequent wash steps a selective anti-Aβ-antibody conjugate (biotinylated 4G8) was added and incubated for a minimum of 1 Hour in order to allow formation of the antibody-Amyloid-antibody-complex. After incubation and appropriate wash steps, a Streptavidine-Peroxidase-Conjugate was added, followed 30 minutes later by an addition of Quanta Blu fluorogenic peroxidase substrate according to the manufacturer's instructions (Pierce Corp., Rockford, Ill.).
as §3, §4

IC50 (Aβ42) [nM] | IC50 (Aβtotal) [nM] | IC50 (Aβ42; Homo sapiens, SKNBE2) [nM] | IC50 (Aβtotal; Homo sapiens, SKNBE2) [nM] | Structure (SMILES)
2570 | > 3000 | – | – | COc1cc(Nc2nc(C)cc3c2nc(C2CCOCC2)n3C)ccc1-c1cnc(C)o1 [Compound 92]
2240 | 25100 | – | – | Cc1ncc(-c2ccc(Nc3cc(C(F)(F)F)cc4c3nc(C3CCOCC3)n4C)cc2)o1 [Compound 100]
83 | > 3000 | – | – | Cc1ncoc1-c1ccc(Nc2cc(C#N)cc3c2nc(-c2ccc(F)cc2)n3C)cn1 [Compound 110]
28 | > 1000 | – | – | Cc1ncoc1-c1ccc(Nc2cccc3c2nc(-c2cccc(Cl)c2)n3C(C)C)cn1 [Compound 112]
72 | > 3000 | – | – | Cc1ncoc1-c1ccc(Nc2cc(F)cc3c2nc(-c2ccccc2Cl)n3C)cn1 [Compound 114]
724 | > 10000 | – | – | Cc1ncoc1-c1ccc(Nc2nccc3c2nc(-c2ccccc2Cl)n3C)cn1 [Compound 117]
51 | > 3000 | – | – | Cc1ncoc1-c1ccc(Nc2cccc3c2nc(-c2ccc(F)cc2)n3C)cc1 [Compound 124]
9770 | > 30000 | – | – | COc1cc(Nc2cc(C(F)(F)F)cn3cc(C(=O)N(C)C)nc23)ccc1-c1ocnc1C [Compound 143]
468 | 13800 | – | – | COc1cc(Nc2cccn3c(C)c(C)nc23)ccc1-c1ocnc1C [Compound 144]
355 | > 30000 | – | – | COc1cc(Nc2cc(C#N)cn3cc(-c4ccc(F)cc4C)nc23)ccc1-c1ocnc1C [Compound 146]
47 | > 3000 | – | – | COc1cc(Nc2cc(C)cn3cc(-c4ccc(F)cc4C)nc23)ccc1-c1ocnc1C [Compound 149]
437 | 8130 | – | – | COc1cc(Nc2cc(CN)cn3cc(-c4ccc(F)cc4C)nc23)ccc1-c1ocnc1C [Compound 150]
23 | > 3000 | – | – | COc1cccc(-c2nc3c(Nc4ccc(-c5ocnc5C)cc4)cccn3c2C)c1 [Compound 152]
1320 | > 3000 | – | – | COc1cc(Nc2nc(C3CC3)cn3cc(C)nc23)ccc1-c1ocnc1C [Compound 153]
2040 | > 3000 | – | – | Cc1ncoc1-c1ccc(Nc2cccn3cc(C4CCOCC4)nc23)cn1 [Compound 154]
389 | 14800 | – | – | COc1cc(Nc2cccn3cc(C4CCOCC4)nc23)ccc1-c1ocnc1C [Compound 155]
138 | > 3000 | – | – | Cc1ncoc1-c1ccc(Nc2cccn3cc(C4CC4)nc23)cn1 [Compound 160]
741 | > 3000 | – | – | Cc1ncc(-c2ccc(Nc3cccn4cc(C5CC5)nc34)cc2)o1 [Compound 166]
> 3000 | > 3000 | – | – | Cc1nc2c(Nc3ccc(-c4cnc(C(C)C)o4)cc3)cccn2c1C [Compound 180]
13 | > 3000 | – | – | COc1cc(Nc2cc(C3CC3)nc3c2nc(-c2ccc(F)cc2)n3C)ccc1-c1cnc(C)o1 [Compound 192]
676 | > 3000 | – | – | COc1cc(Nc2cc(C(F)(F)F)nn3cc(C)nc23)ccc1-c1ocnc1C [Compound 196]
240 | > 30000 | – | – | COc1cc(Nc2cncc3c2nc(-c2ccc(F)cc2)n3C)ccc1-c1ocnc1C [Compound 199]

Further lines, the molecule ahead of its results:

Structure (SMILES) | IC50 (Aβ42) [nM] | IC50 (Aβtotal) [nM] | IC50 (Aβ42; Homo sapiens, SKNBE2) [nM] | IC50 (Aβtotal; Homo sapiens, SKNBE2) [nM]
Cc1ncc(-c2ccc(Nc3cc(F)cc4c3nc(N3CCCC3)n4C)cc2)o1 [Compound 90] | 1100 | > 3000 | – | –
COc1cc(Nc2nccc3c2nc(CCC(F)(F)F)n3C)ccc1-c1cnc(C)o1 [Compound 91] | 1440 | 66100 | – | –
COc1cc(Nc2nc(C3CC3)cc3c2nc(-c2ccc(F)cc2)n3C)ccc1-c1cnc(C)o1 [Compound 94] | 83 | > 3000 | – | –
COc1cccc(-c2nc3c(Nc4ccc(-c5cnc(C)o5)cc4)nc(C)cc3n2C)c1 [Compound 98] | 71 | > 3000 | – | –
COc1cc(Nc2nc(C)cc3c2nc(-c2cccc(OC(C)C)c2)n3C)ccc1-c1cnc(C)o1 [Compound 102] | 24 | > 3000 | – | –
COc1cccc(-c2nc3c(Nc4ccc(-c5cnc(C)o5)nc4)cc(C#N)cc3n2C)c1 [Compound 103] | 36 | > 3000 | – | –
COc1cc(Nc2cc(F)cc3c2nc(N(C)CC(C)C)n3C)ccc1-c1cnc(C)o1 [Compound 108] | 132 | > 10000 | – | –
COc1cccc(-c2nc3c(Nc4ccc(-c5cnc(C)o5)c(F)c4)nccc3n2C)c1 [Compound 109] | 145 | 2820 | – | –
COc1cc(Nc2cc(CN)cc3c2nc(-c2ccc(F)cc2)n3C)ccc1-c1ocnc1C [Compound 120] | – | – | 324 | > 3000
COc1cccc(-c2nc3c(Nc4ccc(-c5ocnc5C)c(OC)c4)nc(C)cc3n2C)c1 [Compound 121] | 20 | > 3000 | – | –
COc1cccc(-c2nc3c(Nc4ccc(-c5ocnc5C)c(OC)c4)cc(C#N)cc3n2C)c1 [Compound 122] | 38 | > 3000 | – | –
COc1cc(Nc2cc(C#N)cc3c2nc(-c2ccc(F)cc2)n3C)ccc1-c1ocnc1C [Compound 123] | 26 | > 1000 | – | –
COc1cc(Nc2cc(C(F)(F)F)cn3c(C)c(C)nc23)ccc1-c1ocnc1C [Compound 142] | 468 | > 10000 | – | –
COCCCc1c(-c2ccccc2C(F)(F)F)nc2c(Nc3ccc(-c4cnc(C)o4)c(OC)c3)cccn12 [Compound 169] | – | – | 45 | > 3000
Cc1ncc(-c2ccc(Nc3cc(F)cn4cc(-c5ccc(F)cc5C)nc34)cc2)o1 [Compound 176] | 41 | > 3000 | – | –
C=C(C)c1c(-c2ccc(F)cc2)nc2c(Nc3ccc(-c4cnc(C)o4)cc3)cccn12 [Compound 177] | – | – | 105 | > 3000
Cc1ncc(-c2ccc(Nc3cc(F)cn4cc(CC(C)C)nc34)cc2)o1 [Compound 178] | 85 | > 3000 | – | –
COc1cc(Nc2cc(C)nc3c2nc(-c2ccc(F)cc2)n3C)ccc1-c1cnc(C)o1 [Compound 193] | 19 | > 3000 | – | –
Cc1ncc(-c2ccc(Nc3cncc4c3nc(-c3ccc(F)cc3)n4C)cn2)o1 [Compound 200] | 295 | > 3000 | – | –
